In patent US9700545B2 (Salix Pharmaceuticals, Ltd, priority 2008, dated 2017):

What was measured:
Assay type in all cases: physicochemical
[1] = Automated moisture sorption/desorption (MB / DVS); details: for form by XRPD after moisture sorption/desorption: sorption from 5% RH to 95% RH, desorption from 95% RH to 5% RH; for hygroscopicity: result in words; for XRPD following DVS: line after DVS
Description: Based on the data, relative humidity stressing studies of the two amorphous materials at 40° C./75% RH are recommended. Moisture sorption/desorption data were collected on a VTI SGA-100 Vapor Sorption Analyzer. Sorption and desorption data were collected over a range of 5% to 95% relative humidity (RH) at 10% RH intervals under a nitrogen purge. Samples were not dried prior to analysis. Equilibrium criteria used for analysis were less than 0.0100% weight change in 5 minutes, with a maximum equilibration time of 3 hours if the weight criterion was not met. Data were not corrected for the initial moisture content of the samples. NaCl and PVP were used as calibration standards.

[2] = Milling experiments on amorphous materials, form by XRPD; details: 10 min. at 30 Hz, scraped sides
Description: (§1) Vapor stressing experiments were done on amorphous material from two preparations: lyophilization from p-dioxane:water 1:1 and crash precipitation from ethyl acetate with heptane. […] The majority of the stressed samples appeared as clear red solutions after 6 days. Those solutions were placed in vials of antisolvent for vapor diffusion. Dry and wet milling experiments were conducted on amorphous materials from the two preparations mentioned above. Amorphous materials were recovered from the dry milling experiments.
A solid sample of rifaximin was charged to a milling container with a milling ball. […] Solids were scraped from the sides of the vial after each interval.

[3] = Vapor stress / vapor diffusion stressing of amorphous materials, form by XRPD; details: methanol and tetrahydrofuran, both with water as antisolvent
Description: as §1

Row | form by XRPD after moisture sorption/desorption [1] | hygroscopicity [1] | XRPD Result after dry milling [2] | form obtained in vapor diffusion experiments [3] | wt loss upon equilibration at 5% RH ([1]; MB, Table 5, milled amorphous) | XRPD following DVS ([1]; Table 2, first sample block (lyophilization sample)) | XRPD following DVS ([1]; Table 2, second sample block (crash precipitation sample)) | weight gain under 95% RH ([1]; amorphous rifaximin made by milling, moisture balance) | form by XRPD after moisture sorption/desorption ([1]; listed as Amorphous) | form by XRPD after moisture sorption/desorption ([1]; listed as Rifaximin Amorphous) | Compound
1 | α dry | – | – | – | – | – | – | – | – | – | CO[C@H]1/C=C/O[C@@]2(C)Oc3c(C)c(O)c4c(O)c(c5c(nc6cc(C)ccn65)c4c3C2=O)NC(=O)/C(C)=C\C=C\[C@H](C)[C@H](O)[C@@H](C)[C@@H](O)[C@@H](C)[C@H](OC(C)=O)[C@@H]1C [α dry]
2 | Crystallization was not observed | moderately hygroscopic | amorphous | – | – | – | – | – | – | – | CO[C@H]1/C=C/O[C@@]2(C)Oc3c(C)c(O)c4c(O)c(c5c(nc6cc(C)ccn65)c4c3C2=O)NC(=O)/C(C)=C\C=C\[C@H](C)[C@H](O)[C@@H](C)[C@@H](O)[C@@H](C)[C@H](OC(C)=O)[C@@H]1C [lyophilized amorphous rifaximin]
3 | Crystallization was not observed | moderately hygroscopic | amorphous | – | – | – | – | – | – | – | CO[C@H]1/C=C/O[C@@]2(C)Oc3c(C)c(O)c4c(O)c(c5c(nc6cc(C)ccn65)c4c3C2=O)NC(=O)/C(C)=C\C=C\[C@H](C)[C@H](O)[C@@H](C)[C@@H](O)[C@@H](C)[C@H](OC(C)=O)[C@@H]1C [crash amorphous rifaximin]
4 | amorphous | hygroscopic | – | Form β | 0.7% wt loss upon equilibration | no peaks, possibly amorphous | no peaks, possibly amorphous | 11.6% | amorphous | amorphous | CO[C@H]1/C=C/O[C@@]2(C)Oc3c(C)c(O)c4c(O)c(c5c(nc6cc(C)ccn65)c4c3C2=O)NC(=O)/C(C)=C\C=C\[C@H](C)[C@H](O)[C@@H](C)[C@@H](O)[C@@H](C)[C@H](OC(C)=O)[C@@H]1C [Amorphous rifaximin]
